Data taken from publication PMC8001898, “New Triterpene Glycosides from the Far Eastern Starfish Solaster pacificus and Their Biological Activity” (Biomolecules, 2021).
Where two headings read alike, the source gives them in different places.

Tests used:
[1] = system: human embryonic kidney HEK 293 cells; experiment: MTS cell viability assay, HEK 293 cells; format: cell-based
Description: (§1) Human embryonic kidney HEK 293 cells (ATCC® no. CRL-1573™), colorectal carcinoma HT-29 cells (ATCC® no. HTB-38™), melanoma RPMI-7951 cells (ATCC® no. HTB-66), and breast cancer MDA-MB-231 cells (ATCC® HTB-26™) were obtained from the American Type Culture Collection (Manassas, VA, USA). […] The cell cultures were maintained at 37 °C in humidified atmosphere containing 5% CO2. […] After three passages the cells were used for the experiments. […] Then samples were vacuum evaporated and dissolved in DMSO to their stock concentrations of 20 mM. Cells (1.0 × 10^4) were seeded in 96-well plates (Jet Biofil, Guangzhou, China) and cultured in 200 µL of complete culture medium for 24 h at 37 °C in 5% CO2 incubator.

[2] = system: colorectal carcinoma HT-29 cells; experiment: MTS cell viability assay, HT-29 cells; format: cell-based, human
Description: as §1

melanoma RPMI-7951 cells [3] = experiment: MTS cell viability assay, RPMI-7951 cells; format: cell-based, human
Description: as §1

[4] = system: breast cancer MDA-MB-231 cells; experiment: MTS cell viability assay, MDA-MB-231 cells; format: cell-based, human
Description: as §1

[5] = system: colorectal carcinoma HT-29 cells; experiment: Soft agar colony formation assay, HT-29 cells; format: cell-based, human; conditions: for decrease of number of colonies of HT-29: 1 µM, 14 days; for decrease of number of colonies of HT-29 / colony growth of HT-29 cells (in words): soft agar; for colony growth of HT-29 cells (in words): concentrations of 0.5 µM and 1 µM; for colony formation of HT-29 cells (in words): nontoxic concentration of 0.5 µM
Description: (§2) Compounds 1–6 were dissolved in sterile DMSO to prepare stock concentrations of 20 mM. Cells were treated with serially diluted compounds 1–6 (culture medium used as diluent) to give the intended final concentrations. The vehicle control is the cells treated with equivalent volume of DMSO (less than 0.5%) for all presented experiments.
(§3) Human cancer cells (2.4 × 10^4/mL) were seeded into 6-well plate and treated with compounds 1–6 (0.1, 0.5, and 1 µM) or cisplatin (3 µM) in 1 mL of 0.3% BME agar containing 10% FBS, 2 mM L-glutamine, and 25 µg/mL gentamicin. The cultures were maintained in a 37 °C, 5% CO2 incubator for 14 days, and the cell colonies were scored using a Motic microscope AE 20 (XiangAn, Xiamen, China) and ImageJ software bundled with 64-bit Java 1.8.0_112 (NIH, Bethesda, MD, USA).
(§4) Figure 3 Effect of compounds 1–6 on colony formation of human colorectal carcinoma HT-29, melanoma RPMI-7951, and breast cancer MDA-MB-231 cell lines. HT-29, RPMI-7951, and MDA-MB-231 cells (2.4 × 10^4 /mL) treated with/without investigated 1–6 (0.1, 0.5, and 1 µM) and subjected into a soft agar. The culture was maintained at 37 °C in a 5% CO2 atmosphere for 2 weeks. The colonies were counted under a microscope with the aid of the ImageJ software program (n = 6 for control and each compound, n—quantity of photos). The asterisks (* p < 0.05, ** p < 0.01, *** p < 0.001) indicate a significant decrease in colony formation in cells treated with compounds compared with the nontreated cells (control).

melanoma RPMI-7951 cells [6] = experiment: Soft agar colony formation assay, RPMI-7951 cells; format: cell-based, human; conditions: for decrease of number of colonies of RPMI-7951: 1 µM, 14 days; for decrease of number of colonies of RPMI-7951 / colony growth of RPMI-7951 cells (in words): soft agar; for colony growth of RPMI-7951 cells (in words): concentrations of 0.5 µM and 1 µM; for colony formation of RPMI-7951 cells (in words): nontoxic concentration of 0.5 µM
Description: as §2, §3, §4

[7] = system: breast cancer MDA-MB-231 cells; experiment: Soft agar colony formation assay, MDA-MB-231 cells; format: cell-based, human; conditions: for decrease of number of colonies of MDA-MB-231: 1 µM, 14 days; for decrease of number of colonies of MDA-MB-231 / colony growth of MDA-MB-231 cells (in words): soft agar; for colony growth of MDA-MB-231 cells (in words): concentrations of 0.5 µM and 1 µM; for colony formation of MDA-MB-231 cells (in words): nontoxic concentration of 0.5 µM
Description: as §2, §3, §4

[8] = system: HEK 293, HT-29, RPMI-7951, and MDA-MB-231 cells; experiment: MTS cell viability assay, statements on all tested cell lines; format: cell-based, human; conditions: individual compounds, 24 h, concentrations range up to 40 µM
Description: Cells (1.0 × 10^4) were seeded in 96-well plates (Jet Biofil, Guangzhou, China) and cultured in 200 µL of complete culture medium for 24 h at 37 °C in 5% CO2 incubator. […] Cells were also treated by cisplatin (positive control) at 1, 5, 10, 50, 100 µM for 24 and 48 h. Subsequently, the cells were incubated with 15 µL MTS reagent for 3 h, and the absorbance of each well was measured at 490/630 nm using Power Wave XS microplate reader (BioTek, Wynusky, VT, USA).

[9] = system: HT-29, RPMI-7951, and MDA-MB-231 cells; experiment: Soft agar colony formation assay, statements on all types of cancer cells; format: cell-based, human; conditions: nontoxic concentrations
Description: as §2, §3
as §4, with “The asterisks (* p < 0.05, ** p < 0.01, *** p < 0.001) indicate a significant decrease in colony formation in cells treated with compounds compared with the nontreated cells (control).” left out

[10] = Homo sapiens, HEK293, 24 h, individual compounds, 24 h, MTS, read-out: Inhibiting Concentration, (IC50), HEK 293, a
[11] = Homo sapiens, HT-29, 24 h, individual compounds, 24 h, MTS, read-out: Inhibiting Concentration, (IC50), HT-29, a
[12] = Homo sapiens, RPMI-7951, 24 h, individual compounds, 24 h, MTS, read-out: Inhibiting Concentration, (IC50), RPMI-7951, a
[13] = Homo sapiens, MDA-MB-231, 24 h, individual compounds, 24 h, MTS, read-out: Inhibiting Concentration, (IC50), MDA-MB-231, a
[14] = Homo sapiens, HEK293, 24 h, read-out: Inhibiting Concentration, (IC50), HEK 293, a
[15] = Homo sapiens, HT-29, 24 h, read-out: Inhibiting Concentration, (IC50), HT-29, a
[16] = Homo sapiens, RPMI-7951, 24 h, read-out: Inhibiting Concentration, (IC50), RPMI-7951, a
[17] = Homo sapiens, MDA-MB-231, 24 h, read-out: Inhibiting Concentration, (IC50), MDA-MB-231, a

| Structure (SMILES) | IC50 [1, 10] | IC50 [2, 11] | IC50 (melanoma RPMI-7951 cells [3]; [12]) | IC50 [4, 13] | decrease of number of colonies of HT-29 [5] | decrease of number of colonies of RPMI-7951 (melanoma RPMI-7951 cells [6]) | decrease of number of colonies of MDA-MB-231 [7] | colony growth of HT-29 cells (in words) [5] | colony formation of HT-29 cells (in words) [5] | colony growth of RPMI-7951 cells (in words) (melanoma RPMI-7951 cells [6]) | colony formation of RPMI-7951 cells (in words) (melanoma RPMI-7951 cells [6]) | colony growth of MDA-MB-231 cells (in words) [7] | colony formation of MDA-MB-231 cells (in words) [7] | IC50 [1, 14] | IC50 [2, 15] | IC50 (melanoma RPMI-7951 cells [3]; [16]) | IC50 [4, 17] | other results |
| --- | --- | --- | --- | --- | --- | --- | --- | --- | --- | --- | --- | --- | --- | --- | --- | --- | --- | --- |
| CO[C@@H]1[C@@H](O)[C@H](O[C@@H]2[C@@H](O)[C@H](O[C@H]3[C@H](O)[C@@H](O[C@@H]4OC[C@@H](O)[C@H](O)[C@H]4O)[C@H](O[C@H]4[C@H](O[C@H]5CC[C@]6(C)[C@@H]7CCC89C(=O)O[C@@](C)(/C=C/C=O)[C@H]8[C@@H](OC(C)=O)C[C@@]9(C)C7=CC[C@H]6C5(C)C)OC[C@@H](O)[C@@H]4O)O[C@@H]3C)O[C@H](CO)[C@H]2O)OC[C@H]1O (stereo partly drawn) [Compound 1, 3β-O-{3-O-methyl-β-D-xylopyranosyl-(1→3)-β-D-glucopyranosyl-(1→4)-[β-D-xylopyranosyl-(1→2)]-β-D-quinovopyranosyl-(1→2)-β-D-xylopyranosyl}-16β-acetoxy-25,26,27-trinorholosta-7,22-dien-24-al] | > 40 µM | > 40 µM | > 40 µM | > 40 µM | 21% | 27% | 28% |  |  |  |  |  |  |  |  |  |  | cytotoxic activity against the tested cell lines (in words) [8]: nontoxic; colony formation of all types of cancer cells (in words) [9]: slightly inhibited |
| C=C(C)[C@H]1[C@@H]2C[C@@]3(C)C4=CC[C@H]5C(C)(C)[C@@H](O[C@@H]6OC[C@@H](O)[C@H](O)[C@H]6O[C@@H]6O[C@H](C)[C@@H](O[C@@H]7O[C@H](CO)[C@@H](O)[C@H](O[C@@H]8OC[C@@H](O)[C@H](OC)[C@H]8O)[C@H]7O)[C@H](O)[C@H]6O[C@@H]6OC[C@@H](O)[C@H](O)[C@H]6O)CC[C@]5(C)[C@@H]4CCC13C(=O)O2 [Compound 2, 3β-O-{3-O-methyl-β-D-xylopyranosyl-(1→3)-β-D-glucopyranosyl-(1→4)-[β-D-xylopyranosyl-(1→2)]-β-D-quinovopyranosyl-(1→2)-β-D-xylopyranosyl}-23,24,25,26,27-pentanorlanosta-7,20(22)-diene-18(16)-lactone] | > 20 µM | > 20 µM | > 20 µM | > 20 µM | 22% | 26% | 25% |  |  |  |  |  |  |  |  |  |  | IC50 ([1]; individual compounds, 24 h, MTS, read-out: Inhibiting Concentration, (IC50), HEK 293, a): 28.6 ± 2.1 µM; IC50 ([2]; individual compounds, 24 h, MTS, read-out: Inhibiting Concentration, (IC50), HT-29, a): 26.2 ± 2.5 µM; IC50 (melanoma RPMI-7951 cells [3]; individual compounds, 24 h, MTS, read-out: Inhibiting Concentration, (IC50), RPMI-7951, a): 20.4 ± 1.6 µM; IC50 ([4]; individual compounds, 24 h, MTS, read-out: Inhibiting Concentration, (IC50), MDA-MB-231, a): 21.5 ± 0.5 µM |
| CO[C@@H]1[C@@H](O)[C@H](O[C@@H]2[C@@H](O)[C@H](O[C@H]3[C@H](O)[C@@H](O[C@@H]4OC[C@@H](O)[C@H](O)[C@H]4O)[C@H](O[C@H]4[C@H](O[C@H]5CC[C@]6(C)[C@@H]7CCC89C(=O)O[C@@](C)(CCC=C(C)C)[C@H]8[C@@H](OC(C)=O)C[C@@]9(C)C7=CC[C@H]6C5(C)C)OC[C@@H](O)[C@@H]4O)O[C@@H]3C)O[C@H](CO)[C@H]2O)OC[C@H]1O (stereo partly drawn) [Compound 3, 3β-O-{3-O-methyl-β-D-xylopyranosyl-(1→3)-β-D-glucopyranosyl-(1→4)-[β-D-xylopyranosyl-(1→2)]-β-D-quinovopyranosyl-(1→2)-β-D-xylopyranosyl}-16β-acetoxyholosta-7,24-diene] | 6.7 ± 0.2 µM | 6.2 ± 0.3 µM | 23.7 ± 0.4 µM | 6.4 ± 0.4 µM |  |  |  | almost completely suppressed | almost completely suppressed | almost completely suppressed | almost completely suppressed | almost completely suppressed | almost completely suppressed |  |  |  |  |  |
| CO[C@@H]1[C@@H](O)[C@H](O[C@@H]2[C@@H](O)[C@H](O[C@H]3[C@H](O)[C@@H](O[C@@H]4OC[C@@H](O)[C@H](O)[C@H]4O)[C@H](O[C@H]4[C@H](O[C@H]5CC[C@]6(C)[C@@H]7CCC89C(=O)O[C@@](C)(/C=C\C=C(C)C)[C@H]8[C@@H](OC(C)=O)C[C@@]9(C)C7=CC[C@H]6C5(C)C)OC[C@@H](O)[C@@H]4O)O[C@@H]3C)O[C@H](CO)[C@H]2O)OC[C@H]1O (stereo partly shown) [Compound 4, cucumarioside C1] |  |  |  |  |  |  |  | almost completely suppressed | almost completely suppressed | almost completely suppressed | almost completely suppressed | almost completely suppressed | almost completely suppressed | 5.5 ± 0.3 µM | 5.3 ± 0.2 µM | 5.8 ± 1.2 µM | 3.6 ± 0.2 µM |  |
| CO[C@@H]1[C@@H](O)[C@H](O[C@@H]2[C@@H](O)[C@H](O[C@H]3[C@H](O)[C@@H](O[C@@H]4OC[C@@H](O)[C@H](O)[C@H]4O)[C@H](O[C@H]4[C@H](O[C@H]5CC[C@]6(C)[C@@H]7CCC89C(=O)O[C@@](C)(/C=C/C=C(C)C)[C@H]8[C@@H](OC(C)=O)C[C@@]9(C)C7=CC[C@H]6C5(C)C)OC[C@@H](O)[C@@H]4O)O[C@@H]3C)O[C@H](CO)[C@H]2O)OC[C@H]1O (stereo partly shown) [Compound 5, cucumarioside C2] |  |  |  |  |  |  |  | almost completely suppressed | almost completely suppressed | almost completely suppressed | almost completely suppressed | almost completely suppressed | almost completely suppressed | 7.9 ± 0.9 µM | 5.5 ± 0.6 µM | 5.9 ± 0.9 µM | 4.4 ± 0.09 µM |  |
| C=C(C)[C@H]1[C@@H]2C[C@@]3(C)C4=CC[C@H]5C(C)(C)[C@@H](O[C@@H]6OC[C@@H](O)[C@H](O)[C@H]6O[C@@H]6O[C@H](C)[C@@H](O[C@@H]7O[C@H](CO)[C@@H](O)[C@H](O[C@@H]8OC[C@@H](O)[C@H](OC)[C@H]8O)[C@H]7O)[C@H](O)[C@H]6O)CC[C@]5(C)[C@@H]4CCC13C(=O)O2 [Compound 6, cucumarioside A10] |  |  |  |  | 28% | 45% | 40% |  |  |  |  |  |  | 6.3 ± 0.6 µM | 7.8 ± 0.7 µM | 5.8 ± 2.6 µM | 5.5 ± 0.1 µM |  |
| N.N.[Cl][Pt][Cl] [cisplatin, reference compound] |  |  |  |  |  |  |  |  |  |  |  |  |  |  |  |  |  | IC50 ([1]; after 48 h of treatment (data not shown), read-out: IC50 against HEK 293 cells): 64.6 µM; IC50 ([2]; after 48 h of treatment (data not shown), read-out: IC50 against HT-29 cells): 95.4 µM; IC50 (melanoma RPMI-7951 cells [3]; after 48 h of treatment (data not shown), read-out: IC50 against RPMI-7951 cells): 48.4 µM; IC50 ([4]; after 48 h of treatment (data not shown), read-out: IC50 against MDA-MB-231 cells): 7.8 µM |
